This is an account of results in patent publication US6025378A, “Bicyclic heterocyclic compounds” (Bayer Aktiengesellschaft, priority 1995, dated 2000).

The subject of the first test is ApoB-100-associated lipoproteins released from HepG2 cells. Briefly: Inhibition of the release of ApoB-100-associated lipoproteins from cultured hepatic HepG2 cells (immunoassay for human LDL). It counts as cell-based. The conditions noted are these: HepG2 cells; culture supernatant; absorption at 450 nm inhibited by 50% vs solvent control; read-out: Apo B IC50. On the procedure:
1. Inhibition of the Release of ApoB-100-associated Lipoproteins
The test for detection of the inhibition of the release of ApoB-100-associated lipoproteins from hepatic cells was carried out in vitro with cultured hepatic cells, preferably with cells of the human line HepG2. These cells are cultured under standard conditions in medium for culture of eukaryotic cells, preferably in RPMI 1640 with 10% foetal calf serum. HepG2 cells synthesize and secrete into the culture supernatant ApoB-100-associated lipoprotein particles, which are in principle built up similarly to the VLDL and LDL particles which are to be found in plasma.
These particles can be detected with an immunoassay for human LDL. This immunoassay is carried out with antibodies which have been induced against human LDL in rabbits under standard conditions. The anti-LDL antibodies (rab-anti-LDL-Ab) were purified by affinity chromatography on an immunosorbent with human LDL. These purified rab-anti-LDL-Ab are adsorbed onto the surface of plastic. This adsorption is expediently carried out on the plastic surface of microtiter plates with 96 wells, preferably on MaxiSorp plates. If ApoB-100-associated particles are present in the supernatant of Hep-G2 cells, these can bond to the insolubilized rab-anti-LDL-Ab, and an immune complex bonded to the plastic surface is formed. Non-bonded proteins are removed by washing The immune complex on the plastic source is detected with monoclonal antibodies, which have been induced against human LDL and purified under standard conditions. These antibodies were conjugated with the enzyme peroxidase. Peroxidase converts the colourless substrate TMB into a coloured product in the presence of H2 O2. After acidification of the reaction mixture with H2 SO4, the specific absorption of light is determined at 450 nm, this being a measure of the amount of ApoB-100-associated particles wich had been secreted by the HepG2 cells into the culture supernatant.
The IC50 value indicates the concentration of substance at which the absorption of light is inhibited by 50% compared with the control (solvent control without the substance).
For `Cc1cccc2c1[nH]c(=S)n2Cc1ccc(C(C(=O)N[C@@H](CO)c2ccccc2)C2CCCC2)cc1` (stereo partly shown) [Example 53], the IC50 (usually the concentration that inhibits the measured activity by half) turned out to be 1690 nM. The same measure, in the same setting: then `Cc1cccc2c1[nH]c(=S)n2Cc1ccc(C(C(=O)N[C@@H](CO)c2ccccc2)C2CCCC2)cc1` (stereo partly shown) [Example 54], with 60.2 nM. Still for that read-out and setting: in the case of `Cc1cccc2c1[nH]c(=S)n2Cc1ccc(C(C(=O)N[C@@H](CO)c2ccccc2)C2CCCC2)cc1` (stereo partly shown) [Example 55] it was 19.5 nM; in that of `O=C(N[C@@H](CO)c1ccccc1)C(c1ccc(CN2C(=O)COc3cccnc32)cc1)C1CCCCCC1` (stereo partly shown) [Example 57], 5 nM; in that of `O=C(N[C@@H](CO)c1ccccc1)C(c1ccc(CN2C(=O)COc3cccnc32)cc1)C1CCCCCC1` (stereo partly shown) [Example 58], 251 nM. As to `O=C(N[C@@H](CO)c1ccccc1)C(c1ccc(CN2C(=O)c3ccccc3C2=O)cc1)C1CCCCCC1` (stereo partly shown) [Example 60], the IC50 turned out to be 9.7 nM. Same read-out and setting: in the case of `O=C(N[C@@H](CO)c1ccccc1)C(c1ccc(CN2C(=O)c3ccccc3C2=O)cc1)C1CCCCCC1` (stereo partly shown) [Example 61] it was 38.9 nM; in that of `O=C(N[C@@H](CO)c1ccccc1)C(c1ccc(CN2C(=O)c3ccccc3C2=O)cc1)C1CCCCCC1` (stereo partly shown) [Example 62], 123 nM. Turning to `CCc1nc2ccccc2c(=O)n1Cc1ccc(C(C(=O)N[C@@H](CO)c2ccccc2)C2CCCC2)cc1` (stereo partly shown) [Example 67], the concentration for half-maximal inhibition (IC50) stood at 27.4 nM.

With `CCc1nc2ccccc2c(=O)n1Cc1ccc(C(C(=O)N[C@@H](CO)c2ccccc2)C2CCCC2)cc1` (stereo partly shown) [Example 68], the IC50 stood at 70.6 nM. On the same count and under the same terms, in the case of `O=C(N[C@@H](CO)c1ccccc1)C(c1ccc(Cn2nc(-c3ccc(Cl)cc3)c3ccccc3c2=O)cc1)C1CCCC1` (stereo partly shown) [Example 76] it was 37.2 nM; in that of `O=C(N[C@@H](CO)c1ccccc1)C(c1ccc(Cn2nc(-c3ccc(Cl)cc3)c3ccccc3c2=O)cc1)C1CCCC1` (stereo partly shown) [Example 77], 14.9 nM; in that of `O=C(N[C@@H](CO)c1ccccc1)C(c1ccc(Cn2nc(-c3ccc(Cl)cc3)c3ccccc3c2=O)cc1)C1CCCC1` (stereo partly shown) [Example 78], 279 nM.

Staying with this test, now noted: Homo sapiens, HepG2, HepG2 cells; culture supernatant; absorption at 450 nm inhibited by 50% vs solvent control; read-out: Apo B IC50.
Consider `O=C(NCc1ccccc1)C(c1ccc(Cn2c(-c3ccccn3)nc3ccccc32)cc1)C1CCCCCC1` (stereo not shown) [Example 48], for which the IC50 was determined as 6.3 nM. Consider `O=C(N[C@@H](CO)c1ccccc1)C(c1ccc(Cn2c(-c3cccnc3)nc3ccccc32)cc1)C1CCCC1` (stereo partly shown) [Example 49], for which the IC50 was determined as 3.6 nM. The same measure, in the same setting: in the case of `O=C(N[C@@H](CO)c1ccccc1)C(c1ccc(Cn2c(-c3ccncc3)nc3ccccc32)cc1)C1CCCC1` (stereo partly shown) [Example 50] it was 17.9 nM. On to `O=C(N[C@@H](CO)c1ccccc1)C(c1ccc(Cn2c(=O)oc3ccccc32)cc1)C1CCCCCC1` (stereo partly shown) [Example 51], for which the half-maximal inhibitory concentration (IC50) was found to be 5.7 nM. Still for that read-out and setting: in the case of `O=C(N[C@@H](CO)c1ccccc1)C(c1ccc(Cn2c(=S)[nH]c3ccccc32)cc1)C1CCCCCC1` (stereo partly shown) [Example 52] it was 518 nM. Turning to `O=C(N[C@@H](CO)c1ccccc1)C(c1ccc(CN2C(=O)CSc3ccccc32)cc1)C1CCCCCC1` (stereo partly shown) [Example 59], the IC50 was 29.2 nM.

As for `O=C(N[C@@H](CO)c1ccccc1)C(c1ccc(CN2C(=O)c3ccncc3C2=O)cc1)C1CCCCCC1` (stereo partly shown) [Example 63], the IC50 is 5.9 nM. Consider `O=C(N[C@@H](CO)c1ccccc1)C(c1ccc(Cn2ncc3ccccc3c2=O)cc1)C1CCCCCC1` (stereo partly shown) [Example 70], for which the IC50 is 58.8 nM. `CCCCc1nn(Cc2ccc(C(C(=O)N[C@@H](CO)c3ccccc3)C3CCCC3)cc2)c(=O)c2ccccc12` (stereo partly shown) [Example 73]: the IC50 was found to be 29.4 nM.
